In patent publication US20260217701A1, “SELECTIVE BET INHIBITORS AND USES THEREOF” (Tay Therapeutics Limited, priority 2022, published 2026):

Legend:
BRD4 BD2 = molecular target: T1, BRD4 BD2 (Homo sapiens, UniProt O60885); assay: NanoBRET bromodomain assay, NanoLuc-BRD4-BD2 in HEK293 cells; type: binding; settings: for Fold Selectivity BRD4 BD1/BD2: IC50 BD1/IC50 BD2, qualitative if an IC50 is at the upper limit
T1 construct: HEK293 cells were transfected using NanoLuc-BRD4-BD1 or NanoLuc-BRD4-BD2 fusion vectors
Protocol: (§1) Plates were then incubated at 37° C.+5% CO2 incubator for 2 hours.
(§2) Fold Selectivity Calculated (IC50 BD1/IC50 BD2).

BRD4 BD1 = molecular target: T2, BRD4 BD1 (Homo sapiens, UniProt O60885); assay: NanoBRET bromodomain assay, NanoLuc-BRD4-BD1 in HEK293 cells; type: binding
T2 construct: HEK293 cells were transfected using NanoLuc-BRD4-BD1 or NanoLuc-BRD4-BD2 fusion vectors
Protocol: Exemplary compounds of the disclosure are active against BRD4 BD2 and selective over BRD4 BD1. BRD4 is a representative example of the BET family, as the binding sites of all BET family members are structurally similar. […] IC50s and fold selectivity's are determined as described below and are represented in Table 1.
as §1, §2

Structure (SMILES)	IC50 (BRD4 BD2) [nM]	Fold Selectivity BRD4 BD1/BD2 (BRD4 BD2)	IC50 (BRD4 BD1) [nM]
Cc1cccc(C)c1Oc1cn(C)c(=O)cc1-c1cn(C)c(=O)c2[nH]c(-c3cnn(CC#N)c3)cc12 [Example 96]	10 to 50	x (Fold >2 and ≤50)	500 to 1000
Cc1cc(-c2cc3c(-c4cc(=O)n(C)cc4-c4ccccc4C)cn(C)c(=O)c3[nH]2)cc(C)n1.Cl [Example 27, 2-(2,6-dimethylpyridin-4-yl)-6-methyl-4-(1-methyl-2-oxo-5-(o-tolyl)-1,2-dihydropyridin-4-yl)-1,6-dihydro-7H-pyrrolo[2,3-c]pyridin-7-one hydrochloride]	10 to 50	xxx (Fold >200 and ≤1000)	> 1000
COCc1ccc(-c2cn(C)c(=O)cc2-c2cn(C)c(=O)c3[nH]c(-c4cnn(C(F)(F)F)c4)cc23)cc1 [Example 8, 4-(5-(4-(methoxymethyl)phenyl)-1-methyl-2-oxo-1,2-dihydropyridin-4-yl)-6-methyl-2-(1-(trifluoromethyl)-1H-pyrazol-4-yl)-1,6-dihydro-7H-pyrrolo[2,3-c]pyridin-7-one]	< 10	xxxx (Fold >1000)	> 1000
Cn1cc(-c2ccccc2Cl)c(-c2cn(C)c(=O)c3[nH]c(-c4ccc(F)cc4F)cc23)cc1=O [Example 79]	10 to 50	xxx (Fold >200 and ≤1000)	> 1000
Cc1cccc(C)c1Oc1cn(C)c(=O)cc1-c1cn(C)c(=O)c2[nH]c(-c3cc(F)cc(F)c3F)cc12 [Example 55, 4-(5-(2,6-dimethylphenoxy)-1-methyl-2-oxo-1,2-dihydropyridin-4-yl)-6-methyl-2-(2,3,5-trifluorophenyl)-1,6-dihydro-7H-pyrrolo[2,3-c]pyridin-7-one]	< 10	xxxx (Fold >1000)	> 1000
COCc1ccc(-c2cc3c(-c4cc(=O)n(C)cc4-c4ccccc4)cn(C)c(=O)c3[nH]2)cc1 [Example 46, 2-(4-(methoxymethyl)phenyl)-6-methyl-4-(1-methyl-2-oxo-5-phenyl-1,2-dihydropyridin-4-yl)-1,6-dihydro-7H-pyrrolo[2,3-c]pyridin-7-one]	< 10	xxxx (Fold >1000)	> 1000
Cn1cc(-c2cccc(C3COC3)c2)c(-c2cn(C)c(=O)c3[nH]c(-c4ccc(F)cc4F)cc23)cc1=O [Example 35, 2-(2,4-difluorophenyl)-6-methyl-4-(1-methyl-5-(3-(oxetan-3-yl)phenyl)-2-oxo-1,2-dihydropyridin-4-yl)-1,6-dihydro-7H-pyrrolo[2,3-c]pyridin-7-one]	10 to 50	xxx (Fold >200 and ≤1000)	> 1000
Cn1cc(-c2cccc(CS(C)(=O)=O)c2)c(-c2cn(C)c(=O)c3[nH]c(-c4cnn(C(F)(F)F)c4)cc23)cc1=O [Example 2, 6-methyl-4-(1-methyl-5-(3-((methylsulfonyl)methyl)phenyl)-2-oxo-1,2-dihydropyridin-4-yl)-2-(1-(trifluoromethyl)-1H-pyrazol-4-yl)-1,6-dihydro-7H-pyrrolo[2,3-c]pyridin-7-one]	50 to 200	xx (Fold >50 and ≤200)	> 1000
Cc1cccc(C)c1Oc1cn(C)c(=O)cc1-c1cn(C)c(=O)c2[nH]c(-c3cnn(CCF)c3)cc12 [Example 14, 4-(5-(2,6-dimethylphenoxy)-1-methyl-2-oxo-1,2-dihydropyridin-4-yl)-2-(1-(2-fluoroethyl)-1H-pyrazol-4-yl)-6-methyl-1,6-dihydro-7H-pyrrolo[2,3-c]pyridin-7-one]	< 10	x (Fold >2 and ≤50)	50 to 500
Cn1cc(-c2ccccc2)c(-c2cn(C)c(=O)c3[nH]c(-c4cccc(F)c4F)cc23)cc1=O [Example 90]	10 to 50	xxx (Fold >200 and ≤1000)	> 1000
COCCOc1cccc(-c2cn(C)c(=O)cc2-c2cn(C)c(=O)c3[nH]c(-c4ccc(F)cc4F)cc23)c1 [Example 53, 2-(2,4-difluorophenyl)-4-(5-(3-(2-methoxyethoxy)phenyl)-1-methyl-2-oxo-1,2-dihydropyridin-4-yl)-6-methyl-1,6-dihydro-7H-pyrrolo[2,3-c]pyridin-7-one]	< 10	xxxx (Fold >1000)	> 1000
Cn1cc(-c2ccccc2)c(-c2cn(C)c(=O)c3[nH]c(-c4ccc(S(C)(=O)=O)cc4)cc23)cc1=O [Example 45, 6-methyl-4-(1-methyl-2-oxo-5-phenyl-1,2-dihydropyridin-4-yl)-2-(4-(methylsulfonyl)phenyl)-1,6-dihydro-7H-pyrrolo[2,3-c]pyridin-7-one]	< 10	xxxx (Fold >1000)	> 1000
Cn1cc(-c2ccccc2)c(-c2cn(C)c(=O)c3[nH]c(-c4cccn(C)c4=O)cc23)cc1=O [Example 1, 6-methyl-2-(1-methyl-2-oxo-1,2-dihydropyridin-3-yl)-4-(1-methyl-2-oxo-5-phenyl-1,2-dihydropyridin-4-yl)-1,6-dihydro-7H-pyrrolo[2,3-c]pyridin-7-one]	10 to 50	xxx (Fold >200 and ≤1000)	> 1000

The next lines start with the values.

IC50 (BRD4 BD2) [nM]	Fold Selectivity BRD4 BD1/BD2 (BRD4 BD2)	IC50 (BRD4 BD1) [nM]	Structure (SMILES)
10 to 50	xxx (Fold >200 and ≤1000)	> 1000	Cn1cc(-c2cccc(CN3CCOCC3)c2)c(-c2cn(C)c(=O)c3[nH]c(-c4ccc(F)cc4F)cc23)cc1=O [Example 36, 2-(2,4-difluorophenyl)-6-methyl-4-(1-methyl-5-(3-(morpholinomethyl)phenyl)-2-oxo-1,2-dihydropyridin-4-yl)-1,6-dihydro-7H-pyrrolo[2,3-c]pyridin-7-one]
< 10	xxx (Fold >200 and ≤1000)	500 to 1000	COc1ccc(-c2cn(C)c(=O)cc2-c2cn(C)c(=O)c3[nH]c(-c4cc(C)nc(C)c4)cc23)cc1.Cl [Example 31, 2-(2,6-dimethylpyridin-4-yl)-4-(5-(4-methoxyphenyl)-1-methyl-2-ox0-1,2-dihydropyridin-4-yl)-6-methyl-1,6-dihydro-7H-pyrrolo[2,3-c]pyridin-7-one hydrogen chloride]
< 10	xxxx (Fold >1000)	> 1000	Cn1cc(-c2cccc3c2COC3)c(-c2cn(C)c(=O)c3[nH]c(-c4ccc(F)cc4F)cc23)cc1=O [Example 6, 2-(2,4-difluorophenyl)-4-(5-(1,3-dihydroisobenzofuran-4-yl)-1-methyl-2-oxo-1,2-dihydropyridin-4-yl)-6-methyl-1,6-dihydro-7H-pyrrolo[2,3-c]pyridin-7-one]
10 to 50	xxx (Fold >200 and ≤1000)	> 1000	Cc1cc(-c2cc3c(-c4cc(=O)n(C)cc4-c4ccc(C#N)cc4)cn(C)c(=O)c3[nH]2)cc(C)n1.Cl [Example 29, 4-(4-(2-(2,6-dimethylpyridin-4-yl)-6-methyl-7-oxo-6,7-dihydro-1H-pyrrolo[2,3-c]pyridin-4-yl)-1-methyl-6-oxo-1,6-dihydropyridin-3-yl)benzonitrile hydrogen chloride]
< 10	xxxx (Fold >1000)	> 1000	Cn1cc(-c2ccccc2)c(-c2cn(C)c(=O)c3[nH]c(-c4cnn(C(F)(F)F)c4)c(F)c23)cc1=O [Example 21, 3-fluoro-6-methyl-4-(1-methyl-2-oxo-5-phenyl-1,2-dihydropyridin-4-yl)-2-(1-(trifluoromethyl)-1H-pyrazol-4-yl)-1,6-dihydro-7H-pyrrolo[2,3-c]pyridin-7-one]
< 10	xxxx (Fold >1000)	> 1000	Cc1cccc(C)c1Oc1cn(C)c(=O)cc1-c1cn(C)c(=O)c2[nH]c(-c3ccc(CO)cc3F)cc12 [Example 58, 4-(5-(2,6-dimethylphenoxy)-1-methyl-2-oxo-1,2-dihydropyridin-4-yl)-2-(2-fluoro-4-(hydroxymethyl)phenyl)-6-methyl-1,6-dihydro-7H-pyrrolo[2,3-c]pyridin-7-one]
10 to 50	xxx (Fold >200 and ≤1000)	> 1000	Cc1cccc(C)c1Oc1cn(C)c(=O)cc1-c1cn(C)c(=O)c2[nH]c(-c3cnn(C(F)F)c3)cc12 [Example 12, 2-(1-(difluoromethyl)-1H-pyrazol-4-yl)-4-(5-(2,6-dimethylphenoxy)-1-methyl-2-oxo-1,2-dihydropyridin-4-yl)-6-methyl-1,6-dihydro-7H-pyrrolo[2,3-c]pyridin-7-one]
< 10	xxxx (Fold >1000)	> 1000	COCc1cccc(-c2cn(C)c(=O)cc2-c2cn(C)c(=O)c3[nH]c(-c4cnn(C(F)(F)F)c4)cc23)c1 [Example 7, 4-(5-(3-(methoxymethyl)phenyl)-1-methyl-2-oxo-1,2-dihydropyridin-4-yl)-6-methyl-2-(1-(trifluoromethyl)-1H-pyrazol-4-yl)-1,6-dihydro-7H-pyrrolo[2,3-c]pyridin-7-one]
< 10	xx (Fold >50 and ≤200)	500 to 1000	Cn1cc(-c2ccccc2)c(-c2cn(C)c(=O)c3[nH]c(-c4cccc(S(C)(=O)=O)c4)cc23)cc1=O [Example 83]
< 10	xx (Fold >50 and ≤200)	50 to 500	Cn1cc(-c2ccccc2)c(-c2cn(C)c(=O)c3[nH]c(-c4cccnc4)cc23)cc1=O [Example 80]
